# From patent US10646538B2, “Self-assembling tripeptides” (ENDO Biologics, Inc., priority 2014, dated 2020)
# Entries after “also recorded” stand apart in the source; their conditions may differ. Peptide text beside a SMILES is read from it.
# Tests used:
# Assay type in all cases: physicochemical
# [1] = TEM of tripeptide samples; details: samples at pH 7
# Protocol: Carbon-coated copper grids (200 mesh) were glow discharged in air for 30 s. The support film was touched onto the gel surface for 3 s and blotted down using filter paper. Negative stain ([…], 1% aqueous methylamine vanadate (Nanovan; Nanoprobes) was applied and the mixture was blotted again using filter paper to remove excess. The dried specimens were then imaged using a LEO 912 energy filtering transmission electron microscope operating at 120 kV fitted with 14 bit/2 K Proscan CCD camera
# [2] = FTIR spectroscopy, amide I region; details: 30 mM in D2O at pH 7
# Protocol: Samples were contained in a standard IR transmission cell (Harrick Scientific) between two 2 mm CaF2 windows, separated by a polytetrafluoroethylene (PFTE) spacer of 50 μm thickness. Spectra were recorded on a Bruker Vertex 70 spectrometer by averaging 25 scans at a spectral resolution of 1 cm^−1. Spectra were corrected for absorption from a phosphate buffer blank sample and absorptions from trifluoroacetic acid (TFA).
# The secondary structure of the peptides can be probed by infrared (IR) spectroscopy.^45,46 When aggregation takes place via intermolecular hydrogen bonding of the amide groups, the 1650-1655 cm^−1 absorption observed for free peptides in solution typically narrows and shifts to lower frequency, while the 1595 cm^−1 peak, assigned to carboxylate groups, broadens or decreases in intensity due to protonation or salt bridge formation. […] Note that small absorption maxima in the 1670-1685 cm^−1 region are assigned to residual trifluoro-acetic acid absorption and the 1570-1580 cm^−1 band for KFD is assigned to the aspartic acid side chain carboxylate group.
# For KYF, a dramatic change in the amide region was noticed upon gelation with intense IR absorption peaks at 1621 and 1649 cm^−1 for the amide groups and 1568 cm^−1 for salt-bridged carboxylate groups.
# [3] = Diffusion Ordered NMR spectroscopy (DOSY); details: 10 mM in D2O, pH 7, 298 K
# Description: DOSY spectra were acquired at 600 MHz using a Bruker Avance 600 spectrometer using the Bruker microprogram dstebpgp3sat at 298 K. The eddy current delay (Te) was set to 5 ms. The diffusion time was adjusted to 100 ms. […] The pulse gradient was increased from 2 to 95% of the maximum gradient strength using a linear ramp 16 k data points in the F2 dimension (20 ppm) and 16 data points in the F1 dimension were collected. […] This method is able to determine the diffusion coefficient D of supramolecular aggregates and therefore their relative size, as described by the Stokes-Einstein equation.^43,44 Diffusion constants for all the studied tripeptides can be found in Table 2. […] For the remaining peptides, DOSY results are in good agreement with the predicted aggregation propensity at 50 ns.
# [4] = pH dependence of the gelation of KYF
# Protocol: We investigated the effects of pH on the gelation of the tripeptide KYF in aqueous solvent. […] The alteration of the pH will affect the protonation state of the ionisable groups on KYF i.e., N and C termini and the lysine side groups.
# pH measurements were carried out ranging from pH 5 to 8. At each pH measurement an image was taken to show the gelation behaviour. The pH was altered using 0.5M NaOH which is added drop wise into the vial, vortexed to ensure a complete mix then the pH is measured until a stable value is obtained.
# Initially, the peptide sample is dissolve in water and the pH is recorded. At this point the pH is below the pKa of the C-terminus therefore the terminal acid is protonated and gelation should not occur, which is what was observed.
# [5] = Aggregation behaviour of tripeptides dissolved in water at pH 7; details: for aggregation behavior on dissolving in water: water at pH 7, 30 mmol/L; for solubility: water / D2O
# Protocol: Tripeptides were dissolved in water by sonication and vortexing, followed by bringing the pH to 7.2±0.1 by dropwise addition of 0.25 M NaOH solution to a final concentration of 30 mmol/L. These were diluted to 10 mmol/L for DLS and NMR experiments. Note that the KYF gel could also be prepared by direct dissolution into a 0.1 M phosphate buffer at pH 7. Characterization of the resulting samples took places at least 24 hours after sample preparation. Samples for FTIR and NMR analysis were prepared using D2O (99.9% D) and NaOD solution instead of H2O and NaOH.
# The bottom half of Table 2 contains the tripeptides that were selected for synthesis and experimental characterization. The selection was made to include a wide range of AP and APH scores, including PFF (#1 from AP score) and KFD (#1 from APH score) and peptides that adhere to one or more of our design rules formulated above, such as KYF. […] These peptides were dissolved in water at pH 7 and their aggregation behavior was studied in order to test the predictive value of our method.
# [6] = Dynamic light scattering (DLS); details: 10 mM at pH 7, 25° C.
# Protocol: The dynamic light scattering (DLS) measurements were carried out on 10 mmol/L peptide solutions (i.e. below the critical gelation concentration) by using a 3 DDLS spectrophotometer (LS instruments, Fribourg, Switzerland) using vertically polarized He—Ne laser light (25 mW with wavelength of 632.8 nm) with an avalanche photodiode detector at an angle of 90° at 25° C. Intensity autocorrelation functions were recorded and analyzed by means of the cumulant method in order to determine the intensity weighted diffusion coefficients D and the average hydrodynamic radius Rh by using the Stokes-Einstein equation, Rh=kBT/6πηD, where kB is the Boltzmann constant, T is the absolute temperature and η is the solvent viscosity at the given temperature.
# To further confirm the presence (and size) of the peptide aggregates formed, dynamic light scattering (DLS) experiments were performed on the KYF gel, PFF suspension and KFD and GGG solutions.
diffusion constant (DOSY) [3],aggregation behavior on dissolving in water [5],average hydrodynamic radius / relative size of the aggregates (DLS) [6],solubility [5],SMILES,nanostructure seen by TEM [1],secondary structure from amide I IR absorption [2],other results
,did not give a gel,,,N=C(N)NCCC[C@H](N)C(=O)N[C@@H](Cc1ccc(O)cc1)C(=O)N[C@@H](Cc1ccccc1)C(=O)O [RYF] (H-Arg-Tyr-Phe-OH),,,
,,,insoluble in water,N[C@@H](CO)C(=O)N[C@@H](Cc1ccc(O)cc1)C(=O)N[C@@H](Cc1ccccc1)C(=O)O [SYF] (H-Ser-Tyr-Phe-OH),,,

# The remaining lines, values behind:
SMILES,diffusion constant (DOSY) [3],aggregation behavior on dissolving in water [5],average hydrodynamic radius / relative size of the aggregates (DLS) [6],solubility [5],nanostructure seen by TEM [1],secondary structure from amide I IR absorption [2],other results
NCCCC[C@H](N)C(=O)N[C@@H](Cc1ccc(O)cc1)C(=O)N[C@@H](Cc1ccccc1)C(=O)O [KYF] (H-Lys-Tyr-Phe-OH),lowest diffusion constant,translucent self-supporting hydrogel,0.26 μm,,entangled fibrous network,well-ordered peptide nanostructure,"pH of critical gelation ([4]; aqueous, pH raised with 0.5M NaOH): 6.9-7.05; gelation behaviour ([4]; pH 2.21 to 6.7, aqueous): remained as a clear solution; gelation behaviour ([4]; pH 6.9, aqueous): weak gel; gelation behaviour ([4]; pH 7.05, aqueous): self-supporting hydrogel; gelation behaviour ([4]; pH 7.05 until 7.98, aqueous): stronger gels"
CC[C@H](C)[C@H](NC(=O)[C@H](Cc1ccc(O)cc1)NC(=O)[C@@H](N)Cc1ccccc1)C(=O)O [FYI] (H-Phe-Tyr-Ile-OH),,precipitated,,poor solubility,,,
CC[C@H](C)[C@H](N)C(=O)N[C@@H](Cc1ccc(O)cc1)C(=O)N[C@@H](Cc1ccccc1)C(=O)O [IYF] (H-Ile-Tyr-Phe-OH),,precipitated,,poor solubility,,,
O=C(O)[C@H](Cc1ccccc1)NC(=O)[C@H](Cc1ccccc1)NC(=O)[C@@H]1CCCN1 [PFF] (H-Pro-Phe-Phe-OH),,suspensions,0.70 μm,poor solubility; also recorded: low solubility,short crystalline nanostructures with a large aspect ratio,β-sheet like arrangement of the amide groups,
NCCCC[C@H](N)C(=O)N[C@@H](Cc1ccccc1)C(=O)N[C@@H](CC(=O)O)C(=O)O [KFD] (H-Lys-Phe-Asp-OH),intermediate diffusion rate,,0.13 μm,,strongly curved fibers together with more amorphous regions,no extended secondary structure formation,
"NCC(=O)NCC(=O)NCC(=O)O [GGG, reference compound] (H-Gly-Gly-Gly-OH)",highest diffusion constant,,0.10 μm,,,,
N[C@@H](Cc1ccccc1)C(=O)N[C@@H](Cc1c[nH]cn1)C(=O)N[C@@H](Cc1ccccc1)C(=O)O [FHF] (H-Phe-His-Phe-OH),,suspensions,,poor solubility,,,
